The NIST ThermoML archive (doi:10.1021/je800664z)
Numbers after ± are expanded uncertainties.

How the values were obtained:
[1] = for surface tension liquid-gas: Capillary rise; for mass density / viscosity: 101 kPa, Liquid
[2] = refractive index (Na D-line) (dimensionless); conditions: 101.33 kPa, Liquid, Standard Abbe refractometry
[3] = refractive index (Na D-line) (dimensionless); xn = mol fraction of the nth substance listed; conditions: 101 kPa, Liquid, Standard Abbe refractometry, x2 = 0
[4] = xn = mol fraction of the nth substance listed; conditions: x2 = 0; for surface tension liquid-gas: Capillary rise; for mass density / viscosity: 101 kPa, Liquid

Row | Structure (SMILES) | surface tension liquid-gas ([1]; 288.15 K) | mass density ([1]; 288.15 K) | viscosity ([1]; 288.15 K) | surface tension liquid-gas ([1]; 298.15 K) | mass density ([1]; 298.15 K) | viscosity ([1]; 298.15 K) | surface tension liquid-gas ([1]; 308.15 K) | mass density ([1]; 308.15 K) | viscosity ([1]; 308.15 K) | refractive index ([2]; 288.15 K) | refractive index ([2]; 298.15 K) | refractive index ([2]; 308.15 K) | refractive index ([3]; 288.15 K) | refractive index ([3]; 298.15 K) | refractive index ([3]; 308.15 K) | surface tension liquid-gas ([4]; 288.15 K) | mass density ([4]; 288.15 K) | viscosity ([4]; 288.15 K) | surface tension liquid-gas ([4]; 298.15 K) | mass density ([4]; 298.15 K) | also measured
1 | C1COCO1 [1,3-dioxolane] | 34.37 ± 0.15 mN/m | 1071.24 ± 0.29 kg/m3 | 0.667 ± 0.013 mPa·s | 32.55 ± 0.15 mN/m | 1059.29 ± 0.27 kg/m3 | 0.596 ± 0.012 mPa·s | 30.67 ± 0.14 mN/m | 1046.85 ± 0.25 kg/m3 | 0.535 ± 0.011 mPa·s | 1.40252 ± 0.00033 | 1.39795 ± 0.00033 | 1.39322 ± 0.00033 |  |  |  |  |  |  |  |  | 
2 | CC(C)CC(C)(C)C [2,2,4-trimethylpentane] | 19.18 ± 0.12 mN/m | 696.1 ± 0.61 kg/m3 | 0.537 ± 0.011 mPa·s | 18.33 ± 0.12 mN/m | 687.95 ± 0.62 kg/m3 | 0.481 ± 0.011 mPa·s | 17.35 ± 0.12 mN/m | 679.62 ± 0.63 kg/m3 | 0.434 ± 0.01 mPa·s | 1.39408 ± 0.00032 | 1.38916 ± 0.00032 | 1.38497 ± 0.00032 |  |  |  |  |  |  |  |  | 
3 | CC(C)CC(C)(C)C [2,2,4-trimethylpentane] + C1COCO1 |  |  |  |  |  |  |  |  |  |  |  |  | 1.39408 ± 0.00032 | 1.38916 ± 0.00032 | 1.38497 ± 0.00032 | 19.18 ± 0.12 mN/m | 696.1 ± 0.61 kg/m3 | 0.537 ± 0.011 mPa·s | 18.33 ± 0.12 mN/m | 687.95 ± 0.62 kg/m3 | viscosity ([4]; 298.15 K): 0.481 ± 0.011 mPa·s; surface tension liquid-gas ([4]; 308.15 K): 17.35 ± 0.12 mN/m; mass density ([4]; 308.15 K): 679.62 ± 0.63 kg/m3; viscosity ([4]; 308.15 K): 0.434 ± 0.01 mPa·s
4 | CC(C)O [propan-2-ol] | 21.75 ± 0.13 mN/m | 789.53 ± 0.48 kg/m3 | 2.849 ± 0.046 mPa·s | 20.9 ± 0.13 mN/m | 781.16 ± 0.5 kg/m3 | 2.043 ± 0.033 mPa·s | 20.17 ± 0.13 mN/m | 772.52 ± 0.51 kg/m3 | 1.541 ± 0.025 mPa·s | 1.37933 ± 0.00033 | 1.37515 ± 0.00033 | 1.37061 ± 0.00033 |  |  |  |  |  |  |  |  | 
5 | CC(C)O [propan-2-ol] + C1COCO1 |  |  |  |  |  |  |  |  |  |  |  |  | 1.37933 ± 0.00033 | 1.37515 ± 0.00033 | 1.37061 ± 0.00033 | 21.75 ± 0.13 mN/m | 789.53 ± 0.48 kg/m3 | 2.849 ± 0.046 mPa·s | 20.9 ± 0.13 mN/m | 781.16 ± 0.5 kg/m3 | viscosity ([4]; 298.15 K): 2.043 ± 0.033 mPa·s; surface tension liquid-gas ([4]; 308.15 K): 20.17 ± 0.13 mN/m; mass density ([4]; 308.15 K): 772.52 ± 0.51 kg/m3; viscosity ([4]; 308.15 K): 1.541 ± 0.025 mPa·s
